Patent US20240350494A1, “THERAPEUTIC MODULATION OF INTEGRINS” (Pliant Therapeutics, Inc., priority 2021, published 2024)
“Also recorded” adds a separate entry of the source.

Tests used:
[1] = test system: forced vital capacity (FVC); assay: Phase 2a trial in IPF, forced vital capacity; type: in vivo, human
Text: The exploratory endpoints of the trial measured changes in forced vital capacity (FVC), HRCT-based Quantitative Lung Fibrosis score (QLF), and selected biomarkers over 3 months of treatment.
FIG. 19 illustrates the change in FVC (forced vital capacity) from baseline to Week 12, MMRM Analysis—ITT Population. Change from baseline analyzed using a mixed model for repeated measures with terms for treatment group, SOC (Y/N), visit, baseline value, and treatment-by-visit interaction. An unstructured covariance (UN) structure was used.

lung Col1a1 expression = assay: Precision cut lung slices, chronic bleomycin exposure, Col1a1 expression; type: cell-based, mice (C57BL/6); settings: 7 days culture
Description: (§1) Mice (C57BL/6) were administered 3 U/kg of bleomycin (Teva Pharmaceuticals; North Wales, PA) on Day 0 and 1 U/kg of bleomycin on days 14, 28, 42 and 56 via oropharyngeal aspiration while under anesthesia. At day 70, 14 days after the final bleomycin insult, precision cut lung slices were obtained. Following euthanization, 2% low gelling temp agarose was injected into the mouse lungs via the trachea. […] The lobes were then subjected to precision slicing to obtain samples for culture using a microtome (Compresstome VF-300-OZ, Precisionary; Greenville, NC). Individual slices were distributed in a multiwell culture plate and cultured for 7 days under control (DMSO) and test compound conditions. The viability of the slices over the course of culturing was confirmed by WST-1 assay of mitochondrial activity.
During the culture period, slices in the control group were treated with DMSO and slices in the test group were treated with a DMSO solution of one of: the selective antibody αVβ6 inhibitor 3G9; the αVβ1-selective small molecule inhibitor; a combination of the selective antibody αVβ6 inhibitor 3G9 and the αVβ1-selective small molecule inhibitor; compound 5; and the small molecule ALK5 inhibitor. The selective αVβ1 and αVβ6 integrin inhibitors were analyzed at ≥their respective IC90 concentrations for inhibition of TGF-beta activation. Compound 5 was run at approximate IC50 for inhibition of TGF-beta activation by αVβ6.
as §1, with “following” for “after”
During the culture period, slices in the control group were treated with DMSO and slices in the test group were treated with a DMSO solution of one of: compound 5; nintedanib; pirfenidone; a combination of nintedanib and compound 5; a combination of pirfenidone and compound 5; or the small molecule ALK5 inhibitor. Compound 5 was […] effective to equal or exceed its respective IC50 values at αVβ6 and αVβ1. […] Nintendanib and pirfenidone were analyzed at concentrations 10× their reported therapeutic concentrations.

αVβ6 = target: T1, αVβ6 (Homo sapiens, UniProt P06756+P18564); assay: αVβ6 target engagement in IPF lungs, [18F]FP-R01-MG-F2 PET/CT; type: in vivo; design: key to Vt: VT = volume of labeled tissue, from two-compartment kinetic model; key to Vs (corrected for non-displaceable binding, VND = 0.66): VT corrected for non-displaceable tracer binding (VND)
T1 construct: evaluating αVβ6 receptor occupancy in the lungs; from tissue; host or cells: lungs of living participants with IPF (in vivo PET/CT)
Description: The aim of this Example is to assess target engagement of the disclosed compounds to αVβ6 in participants with IPF using [^18F]FP-R01-MG-F2 PET/computerized tomography (CT) imaging.
This Example was conducted as an open-label, single-dose (60 mg, 120 mg, 240 mg or 320 mg) clinical trial evaluating αVβ6 receptor occupancy in the lungs, safety, and pharmacokinetics of Compound 5 in subjects with IPF. Knottin tracer uptake kinetics were compared pre- and post-dose of the disclosed compound, as measured by standardized uptake values (SUVs) and parameters estimated from kinetic modeling in regions-of-interest on dynamic [^18F]FP-R01-MG-F2 PET/CT scans. […] Receptor occupancy was estimated from the output of the two-compartment model (VT, the volume of labeled tissue) using standard equations and fitting algorithms, and corrections for VND (non-displaceable tracer binding). For example, in FIG. 8, the data points, shown as circles, are modeled by the following formula: […]
Five subjects with IPF were enrolled: Subject A received a single dose of 60 mg of the disclosed compound followed by a post-dose scan. Subject B received two doses of the disclosed compound separated by two weeks, 120 mg and 240 mg, each followed by a post-dose scan. Subject C received two doses of the disclosed compound separated by two weeks, 240 mg and 320 mg, each followed by a post-dose scan. Subject D received a single dose of 320 mg of the disclosed compound followed by a post-dose scan.

[2] = test system: Human bronchial epithelial cells; assay: LAP adhesion assay, normal human bronchial epithelial cells (express αVβ6); type: cell-based; settings: cell index (electrical impedance), xCELLigence; FIG. 1A
Description: Two latency associated peptide (LAP) adhesion binding assays were devised using primary human lung cells, including normal (healthy) human bronchial epithelial cells and human lung fibroblasts (healthy and IPF).
Human bronchial epithelial cells are known to express αVβ6 integrin in culture. Human bronchial epithelial cells were prepared for the assay by dissociation with trypsin/EDTA and were then seeded at 20,000 cells per well on 96 well plates (ACEA Bioscience E-plate View, Acea Biosciences; San Diego, CA) previously coated with 5 μg/ml of recombinant human LAP (R&D Systems; Minneapolis, MN) and blocked with 4% bovine serum albumin. Cell index (electrical impedance) was measured to assess cell attachment/spreading every 3 minutes for 24 hours at 37° C./5% CO2 using the xCELLigence RTCA MP Instrument (Acea Biosciences; San Diego, CA).

T1 sequence (P06756 31-889 limits assumed): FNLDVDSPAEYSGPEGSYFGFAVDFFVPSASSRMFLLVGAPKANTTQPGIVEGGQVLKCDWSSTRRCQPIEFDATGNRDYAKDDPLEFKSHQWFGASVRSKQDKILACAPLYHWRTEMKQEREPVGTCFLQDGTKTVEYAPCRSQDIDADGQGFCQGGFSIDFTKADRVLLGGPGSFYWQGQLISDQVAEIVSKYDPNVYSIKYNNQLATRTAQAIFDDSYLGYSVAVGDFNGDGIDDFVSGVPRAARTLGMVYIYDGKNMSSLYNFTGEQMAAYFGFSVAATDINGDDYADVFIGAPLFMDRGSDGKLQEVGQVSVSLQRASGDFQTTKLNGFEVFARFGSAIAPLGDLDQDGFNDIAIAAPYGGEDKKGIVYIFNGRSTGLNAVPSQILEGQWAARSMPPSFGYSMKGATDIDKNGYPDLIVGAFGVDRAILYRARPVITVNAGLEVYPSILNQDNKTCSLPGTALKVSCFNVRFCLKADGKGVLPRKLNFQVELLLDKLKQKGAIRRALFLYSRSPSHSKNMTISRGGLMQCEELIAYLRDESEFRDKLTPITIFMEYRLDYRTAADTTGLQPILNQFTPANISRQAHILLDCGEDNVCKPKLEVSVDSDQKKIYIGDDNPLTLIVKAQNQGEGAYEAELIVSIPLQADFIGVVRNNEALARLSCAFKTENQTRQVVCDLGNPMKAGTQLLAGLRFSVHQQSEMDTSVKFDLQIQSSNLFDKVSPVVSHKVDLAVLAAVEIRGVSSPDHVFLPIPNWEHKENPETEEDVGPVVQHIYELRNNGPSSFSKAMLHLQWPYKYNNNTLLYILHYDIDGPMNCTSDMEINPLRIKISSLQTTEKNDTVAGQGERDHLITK
T1 sequence (P06756 891-1048 partner limits assumed): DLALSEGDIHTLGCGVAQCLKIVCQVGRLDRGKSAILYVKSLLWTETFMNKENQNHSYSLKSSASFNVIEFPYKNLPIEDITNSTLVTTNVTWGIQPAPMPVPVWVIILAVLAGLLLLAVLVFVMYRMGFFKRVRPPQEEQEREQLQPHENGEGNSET
T1 sequence (P18564 22-788): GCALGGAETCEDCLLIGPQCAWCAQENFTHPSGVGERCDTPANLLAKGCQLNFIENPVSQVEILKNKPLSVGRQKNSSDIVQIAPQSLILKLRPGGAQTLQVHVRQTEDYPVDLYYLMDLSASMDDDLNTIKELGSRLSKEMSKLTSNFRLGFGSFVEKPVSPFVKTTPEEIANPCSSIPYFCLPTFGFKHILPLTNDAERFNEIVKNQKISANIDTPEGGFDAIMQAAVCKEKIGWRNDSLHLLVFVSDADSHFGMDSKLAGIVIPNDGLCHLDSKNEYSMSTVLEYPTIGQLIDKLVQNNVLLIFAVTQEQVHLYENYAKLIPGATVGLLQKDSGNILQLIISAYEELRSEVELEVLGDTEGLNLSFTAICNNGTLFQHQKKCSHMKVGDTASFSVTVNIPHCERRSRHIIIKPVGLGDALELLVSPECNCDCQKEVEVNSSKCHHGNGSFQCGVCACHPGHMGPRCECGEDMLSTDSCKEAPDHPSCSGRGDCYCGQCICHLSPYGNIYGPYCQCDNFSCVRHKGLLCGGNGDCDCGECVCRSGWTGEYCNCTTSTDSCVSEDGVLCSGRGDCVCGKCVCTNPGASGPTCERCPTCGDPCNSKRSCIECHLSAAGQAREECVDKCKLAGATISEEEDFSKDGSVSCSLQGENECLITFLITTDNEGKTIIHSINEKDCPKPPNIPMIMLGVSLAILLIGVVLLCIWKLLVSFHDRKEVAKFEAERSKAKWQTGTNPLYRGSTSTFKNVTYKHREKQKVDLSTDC

## COCCN(CCCCc1ccc2c(n1)NCCC2)CC[C@H](Nc1ncnc2ccccc12)C(=O)O [Compound 5, (S)-4-((2-methoxyethyl)(4-(5,6,7,8-tetrahydro-1,8-naphthyridin-2-yl)butyl)amino)-2-(quinazolin-4-ylamino)butanoic acid]
[1]; 80 mg QD, 12 weeks
  increase in FVC relative to baseline: +24.6 mL
[1]; 40, 80, 160 mg QD
  treatment effect on FVC versus placebo at 12 weeks: dose-dependent treatment effect
[1]; 40, 80, 160 mg QD, 12 weeks
  proportion of patients experiencing a FVCpp decline of ≥10%, dose dependence: Dose-dependent reduction; also recorded: dose-dependent decrease; also recorded: Dose dependent reduction
[1]; all Compound 5 dose groups, SoC nintedanib or pirfenidone
  treatment effect with and without standard of care therapy: A treatment effect was observed; also recorded: evident with and without use of standard-of-care agents
Lung Col1a1 expression; Compound 5 at approximate IC50 (αVβ6), selective inhibitors at ≥IC90, ALK5 inhibitor at 10× IC50, FIG. 3B
  lung Col1a1 expression, normalized to DMSO control slices: decreased lung Col1a1 expression substantially
Lung Col1a1 expression; FIG. 3B
  decrease of lung Col1a1 expression compared with combined 3G9 and αVβ1-selective inhibitor: to a greater extent than combined administration
Lung Col1a1 expression; nintedanib and pirfenidone at 10× therapeutic concentrations, ALK5 inhibitor at 10× IC50, FIG. 4A
  lung slice Col1a1 expression compared to DMSO vehicle control slices: substantial, statistically significant (p<0.01 vs vehicle) decrease
αVβ6; 60 mg dose
  decrease of the volume of distribution of the knottin radiotracer in the lungs: approximately 50%
αVβ6; 240 and 320 mg doses
  decrease of the volume of distribution of the knottin radiotracer in the lungs: greater than 95%
αVβ6; IPF lungs, at pharmacologically relevant plasma concentrations
  Receptor occupancy: > 95%
αVβ6; Subject A, 60 mg, post-dose scan (baseline Vs 2.47)
  Vs (corrected for non-displaceable binding, VND = 0.66): 1.18
αVβ6; Subject A, 60 mg, post-dose scan (baseline Vt 3.13)
  Vt: 1.84
αVβ6; Subject B, 120 mg
  % DeltaVt: 59.76%
αVβ6; Subject B, 120 mg, post-dose scan (baseline Vs 2.48)
  Vs (corrected for non-displaceable binding, VND = 0.66): 0.99
αVβ6; Subject B, 120 mg, post-dose scan (baseline Vt 3.12)
  Vt: 1.65
αVβ6; Subject B, 240 mg, post-dose scan (baseline Vs 2.46)
  Vs (corrected for non-displaceable binding, VND = 0.66): 0.06
αVβ6; Subject B, 240 mg, post-dose scan (baseline Vt 3.12)
  Vt: 0.72
αVβ6; Subject C, 240 mg, post-dose scan (baseline Vs 1.1)
  Vs (corrected for non-displaceable binding, VND = 0.66): 0,32
αVβ6; Subject C, 240 mg, post-dose scan (baseline Vt 1.76)
  Vt: 0.98
αVβ6; Subject C, 320 mg, post-dose scan (baseline Vs 1.1)
  Vs (corrected for non-displaceable binding, VND = 0.66): 0.19
αVβ6; Subject C, 320 mg, post-dose scan (baseline Vt 1.76)
  Vt: 0.85
αVβ6; Subject D, 320 mg, post-dose scan (baseline Vs 1.4)
  Vs (corrected for non-displaceable binding, VND = 0.66): 0.09
αVβ6; Subject D, 320 mg, post-dose scan (baseline Vt 2.06)
  Vt: 0.75
αVβ6; measured drug exposure at 4 hours, approaching 100% receptor occupancy
  concentration at which the exposure response saturates: about 100 nM
[2]
  inhibition of normal bronchial epithelial cell adhesion to LAP: substantially inhibited
